Test results as given in PMC12627232 (MedComm, 2025).

Legend:
[1] = system: MDA-MB-231 cells; assay: PD-L1 expression by flow cytometry; type: cell-based, human
Experimental: MDA‐MB‐231 cells in logarithmic growth phase were inoculated into six‐well plates with a cell density of 3 × 10^4 cells per well. After incubated at 37°C for 24 h, the original medium was abandoned and 900 µL complete medium was added, in which HitransG P infection solution was added. The virus dosage was calculated according to the formula and added to the cell. Virus volume = cell number × MOI value/virus titer. After incubated in the incubator at 37°C for 16 h, replace fresh complete medium. After that, the medium changed every 24 h. 48 h after infection, the cells were treated with or without compound at a concentration of 1 µM. After 48 h of culture, the fluorescence expression was observed under microscope, and the silencing effect of shHDAC1 was detected by Western Blot. The antibodies HDAC1 (Abmart; #T55154) and GAPDH (Beyotime; #AF2819) were used. The HDAC1‐siRNA lentivirus (shHDAC1) and negative control lentivirus (shCtrl) were obtained from Shanghai GeneChem Co., Ltd. (Shanghai, China).
Next, cells were digested into single‐cell suspension with trypsin, collected in a flow tube and washed with precooled 1 × PBS. Mouse serum was added to cells for 30 min at room temperature to block cells. Then the cells were incubated with anti‐human‐PD‐L1 (BioLegend; #329732) at 4°C for 1 h, and flow cytometry was performed with FACS Celesta (BD Biosciences, USA). […]

[2] = system: MDA-MB-231 cells; assay: GreenNuc assay for caspase-3 activation; type: cell-based, human; conditions: MDA-MB-231, 24 h
Experimental: Caspase‐3 activation was detected with the GreenNuc caspase‐3 assay kit for live cells (Beyotime Inc). Cells (10^5 cells per well) were seeded in black 96‐well plates and treated with different concentrations of compounds. After 24 h, the medium was discarded, and cells were treated with GreenNuc caspase‐3 substrate at room temperature for 30 min. Fluorescence intensity was measured using a Varioskan plate reader at 485/515 nm, and the final activation folds were calculated.

For `O=C(CCCCCCNC(=O)c1cc(OCCc2ccccc2)c2ccccc2n1)NO` [SDFZ-8], the PD-L1 expression [1] was “increase” and the caspase-3 activation [2] was “significantly higher than that observed for SAHA”.
